Test results as given in patent US20060034992A1, “Flavor and fragrance compounds” (priority 2002, published 2006).
Read-outs that look alike come from different tables or passages of the source.

Test: Release rate of acetaldehyde from precursor (acid hydrolysis) in phosphate buffer, UV extinction at 280 nm
Assay type: physicochemical
Settings: for rate constant k: Precursor + H2O -> Ethanol + Acetaldehyde; for half-life at 2.5 mg/mL: phosphate buffer
Experimental: The release rate of acetaldehyde from the precursor according to formula II with n=1 is measured and compared to 1,2-di[(1′-ethoxy)ethoxy]propane and acetaldehyde diethyl. The measurements are conducted as described in S. M. Oon and D. G. Kubler, “Hydrolysis of Aldal Acetals”, J. Org. Chem., 1982, 47, 1166-1171. A phosphate buffer solution (2 mL) is placed into a quartz cuvette and 5 mg of the respective acetaldehyde precursor is added. The mixture is mixed well and sealed using Parafilm™. The release of acetaldehyde is monitored in a UV-Photometer measuring the increase of the extinction at 280 nm over time. Depending on reaction speed, all 3 to 10 seconds measurements are conducted. […] by the formula C(t)=C0+Cx×(1−e^−kt), wherein C(t) the absorption corresponding to the concentration of acetaldehyde at time t, C0 absorption corresponding to the concentration of acetaldehyde at time t=0, Cx the total amount of acetaldehyde present in the precursor, k the rate constant and t the reaction time. The rate constants are calculated by a numeric approximation program (TABLE CURVE 2D, ©AISN Software Inc.). The half life time λ is calculated from the rate constant using the equation λ=−ln(0.5)/k.

[1] = pH 3.5, read-out: half-life (acetaldehyde release) (converted)
[2] = pH 3.0, read-out: half-life (acetaldehyde release) (converted)

| Structure (SMILES) | release of acetaldehyde (acidic conditions) | stability (neutral pH conditions) | rate constant k (pH 2.8) | rate constant k (pH 3.18) | rate constant k (pH 3.81) | rate constant k (pH 4.14) | half-life at 2.5 mg/mL [1] | half-life at 2.5 mg/mL (pH 2.8, calculated from rate constant, read-out: half life time λ (converted)) | half-life at 2.5 mg/mL [2] | half-life at 2.5 mg/mL (pH 3.18, calculated from rate constant, read-out: half life time λ (converted)) | half-life at 2.5 mg/mL (pH 3.81, calculated from rate constant, read-out: half life time λ (converted)) | half-life at 2.5 mg/mL (pH 4.14, calculated from rate constant, read-out: half life time λ (converted)) |
| --- | --- | --- | --- | --- | --- | --- | --- | --- | --- | --- | --- | --- |
| CCOC(C)OC(C)OCC (stereo not shown) [1-ethoxy-1-(1-ethoxy-ethoxy)-ethane] | rapidly releases acetaldehyde | stable | 0.005966 s⁻¹ | 0.003446 s⁻¹ | 0.00069 s⁻¹ | 0.000382 s⁻¹ | 16.1 min | 1.93 min | 5.1 min | 3.35 min | 16.7 min | 30.2 min |
| CCOC(C)OCC [acetaldehyde diethyl acetal, reference compound] | – | – | – | – | – | – | 41.5 min | – | 9.65 min | – | – | – |
| CCOC(C)OCC(C)OC(C)OCC (stereo not shown) [1,2-di[(1′-ethoxy)ethoyx]propane, 1,2-di[(1′-ethoxy)ethoxy]propane, reference compound] | – | – | – | – | – | – | 65.1 min | – | 10.4 min | – | – | – |
